Earlier results, collected in US20110201631A1, “PHARMACEUTICAL FORMULATIONS COMPRISING PEMETREXED” (DR. REDDY'S LABORATORIES LTD., priority 2008, published 2011).

Conditions: U.S. Pat. No. 7,138,521

For `Nc1nc2[nH]cc(CCc3ccc(C(=O)N[C@@H](CCC(=O)[O-])C(=O)[O-])cc3)c2c(=O)[nH]1.[Na+].[Na+]` [heptahydrate, L-Glutamic acid, N-[4-[2-(2-amino-4,7-dihydro-4-oxo-1H-pyrrolo[2,3-c]pyrimidin-5-yl)ethyl]benzoyl]-, disodium salt, heptahydrate], the “Stability of crystal form relative to 2.5 hydrate” value is given as “much more stable than the previously known 2.5 hydrate”.
